In US8959984B2, “Proteome-wide quantification of small molecule binding to cellular target proteins” (priority 2007, dated 2015):
Read-outs that look alike come from different tables or passages of the source.

How the values were obtained:
MAP3K6 = target: T1, MAP3K6 (Homo sapiens, UniProt O95382); assay: binding to immobilized V16742 (IVA1/IVA2, HeLa lysate, MS)
T1 construct: endogenous in cells; host or cells: HeLa S3
T1 sequence (O95382 1-1288): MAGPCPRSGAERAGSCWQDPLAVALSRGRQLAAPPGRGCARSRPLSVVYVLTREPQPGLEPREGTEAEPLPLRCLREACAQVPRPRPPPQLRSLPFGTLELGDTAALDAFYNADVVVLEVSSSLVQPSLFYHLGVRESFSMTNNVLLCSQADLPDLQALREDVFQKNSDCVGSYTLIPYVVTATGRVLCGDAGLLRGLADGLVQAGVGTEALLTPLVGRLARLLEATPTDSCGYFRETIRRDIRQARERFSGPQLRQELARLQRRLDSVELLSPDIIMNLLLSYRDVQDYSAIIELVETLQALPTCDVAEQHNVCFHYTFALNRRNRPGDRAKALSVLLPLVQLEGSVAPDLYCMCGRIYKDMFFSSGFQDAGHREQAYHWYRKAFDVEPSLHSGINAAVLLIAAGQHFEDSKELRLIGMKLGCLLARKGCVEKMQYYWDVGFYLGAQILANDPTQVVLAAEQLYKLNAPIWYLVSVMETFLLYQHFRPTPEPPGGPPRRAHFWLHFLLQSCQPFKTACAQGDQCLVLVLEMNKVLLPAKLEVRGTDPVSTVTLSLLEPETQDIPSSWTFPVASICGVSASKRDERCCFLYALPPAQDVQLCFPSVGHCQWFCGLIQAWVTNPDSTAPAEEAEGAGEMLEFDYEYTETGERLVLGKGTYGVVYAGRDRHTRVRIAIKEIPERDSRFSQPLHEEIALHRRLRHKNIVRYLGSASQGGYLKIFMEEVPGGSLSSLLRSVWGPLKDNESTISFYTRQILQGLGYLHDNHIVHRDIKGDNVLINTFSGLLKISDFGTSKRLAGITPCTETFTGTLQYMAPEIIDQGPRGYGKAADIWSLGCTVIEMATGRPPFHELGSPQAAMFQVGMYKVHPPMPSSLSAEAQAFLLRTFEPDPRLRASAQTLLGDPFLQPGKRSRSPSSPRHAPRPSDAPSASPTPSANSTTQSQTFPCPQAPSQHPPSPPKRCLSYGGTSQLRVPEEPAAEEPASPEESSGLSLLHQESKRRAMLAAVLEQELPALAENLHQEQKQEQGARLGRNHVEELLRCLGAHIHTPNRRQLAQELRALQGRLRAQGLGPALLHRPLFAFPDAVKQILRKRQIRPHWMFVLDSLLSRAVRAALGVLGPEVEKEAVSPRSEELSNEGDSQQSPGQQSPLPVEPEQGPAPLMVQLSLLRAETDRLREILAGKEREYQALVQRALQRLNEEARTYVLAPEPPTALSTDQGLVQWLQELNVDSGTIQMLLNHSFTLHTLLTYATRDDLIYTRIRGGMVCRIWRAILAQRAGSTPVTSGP

PHKg2 = target: T2, PHKg2 (Homo sapiens, UniProt P15735); assay: as above
T2 construct: endogenous in cells; host or cells: HeLa S3
T2 sequence (P15735 1-406): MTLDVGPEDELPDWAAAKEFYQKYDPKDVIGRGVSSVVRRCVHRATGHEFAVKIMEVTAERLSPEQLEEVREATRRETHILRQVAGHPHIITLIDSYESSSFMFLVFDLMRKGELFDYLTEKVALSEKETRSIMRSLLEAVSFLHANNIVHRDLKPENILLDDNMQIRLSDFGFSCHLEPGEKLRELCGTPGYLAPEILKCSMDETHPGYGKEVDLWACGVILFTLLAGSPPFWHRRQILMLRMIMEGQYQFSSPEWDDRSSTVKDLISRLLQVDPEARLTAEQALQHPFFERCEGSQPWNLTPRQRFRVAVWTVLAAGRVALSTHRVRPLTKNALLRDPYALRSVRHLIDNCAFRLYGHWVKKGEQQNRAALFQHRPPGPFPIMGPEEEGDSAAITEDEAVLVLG

DPH5 (IPI00375824) = target: T3, DPH5 (IPI00375824) (Homo sapiens, UniProt Q9H2P9); assay: binding to VI16742 beads (HeLa lysate, SILAC MS)
T3 construct: endogenous in cells; host or cells: HeLa S3
T3 sequence (Q9H2P9 1-285): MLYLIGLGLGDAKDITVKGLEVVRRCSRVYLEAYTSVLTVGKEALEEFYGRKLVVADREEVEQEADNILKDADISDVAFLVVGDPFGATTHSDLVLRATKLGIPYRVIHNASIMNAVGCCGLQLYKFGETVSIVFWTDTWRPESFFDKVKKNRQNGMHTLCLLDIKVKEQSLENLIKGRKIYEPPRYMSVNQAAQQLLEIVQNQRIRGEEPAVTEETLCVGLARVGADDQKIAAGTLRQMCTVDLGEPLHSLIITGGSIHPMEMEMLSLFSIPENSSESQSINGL
From the text: (§1) In an alternative implementation of the chemical proteomic approach according to the invention, the broadly-selective pyrido[2,3-d]pyrimidine-based kinase inhibitor VI16742 has been used for affinity capture (FIG. 10a). […] As shown by gene ontology analysis, the corresponding molecular functions were highly over-represented in proteins specifically retained by the inhibitor resin (FIG. 10b).

RPSA (IPI00413108) = target: T4, RPSA (IPI00413108) (Homo sapiens, UniProt P08865); assay: binding to VI16742 beads (HeLa lysate, SILAC MS)
T4 construct: endogenous in cells; host or cells: HeLa S3
From the text: as §1

[1] = target: T5, TNIK/ZC2 (TNIK, IPI00514275) (Homo sapiens, UniProt Q9UKE5); assay: binding to VI16742 beads (HeLa lysate, SILAC MS)
T5 construct: endogenous in cells; host or cells: HeLa S3
From the text: as §1

ROCK2 (IPI00307155) = target: T6, ROCK2 (IPI00307155) (Homo sapiens, UniProt O75116); assay: binding to VI16742 beads (HeLa lysate, SILAC MS)
T6 construct: endogenous in cells; host or cells: HeLa S3
From the text: as §1

[2] = control beads vs first incubation

T5 sequence (Q9UKE5 whole entry): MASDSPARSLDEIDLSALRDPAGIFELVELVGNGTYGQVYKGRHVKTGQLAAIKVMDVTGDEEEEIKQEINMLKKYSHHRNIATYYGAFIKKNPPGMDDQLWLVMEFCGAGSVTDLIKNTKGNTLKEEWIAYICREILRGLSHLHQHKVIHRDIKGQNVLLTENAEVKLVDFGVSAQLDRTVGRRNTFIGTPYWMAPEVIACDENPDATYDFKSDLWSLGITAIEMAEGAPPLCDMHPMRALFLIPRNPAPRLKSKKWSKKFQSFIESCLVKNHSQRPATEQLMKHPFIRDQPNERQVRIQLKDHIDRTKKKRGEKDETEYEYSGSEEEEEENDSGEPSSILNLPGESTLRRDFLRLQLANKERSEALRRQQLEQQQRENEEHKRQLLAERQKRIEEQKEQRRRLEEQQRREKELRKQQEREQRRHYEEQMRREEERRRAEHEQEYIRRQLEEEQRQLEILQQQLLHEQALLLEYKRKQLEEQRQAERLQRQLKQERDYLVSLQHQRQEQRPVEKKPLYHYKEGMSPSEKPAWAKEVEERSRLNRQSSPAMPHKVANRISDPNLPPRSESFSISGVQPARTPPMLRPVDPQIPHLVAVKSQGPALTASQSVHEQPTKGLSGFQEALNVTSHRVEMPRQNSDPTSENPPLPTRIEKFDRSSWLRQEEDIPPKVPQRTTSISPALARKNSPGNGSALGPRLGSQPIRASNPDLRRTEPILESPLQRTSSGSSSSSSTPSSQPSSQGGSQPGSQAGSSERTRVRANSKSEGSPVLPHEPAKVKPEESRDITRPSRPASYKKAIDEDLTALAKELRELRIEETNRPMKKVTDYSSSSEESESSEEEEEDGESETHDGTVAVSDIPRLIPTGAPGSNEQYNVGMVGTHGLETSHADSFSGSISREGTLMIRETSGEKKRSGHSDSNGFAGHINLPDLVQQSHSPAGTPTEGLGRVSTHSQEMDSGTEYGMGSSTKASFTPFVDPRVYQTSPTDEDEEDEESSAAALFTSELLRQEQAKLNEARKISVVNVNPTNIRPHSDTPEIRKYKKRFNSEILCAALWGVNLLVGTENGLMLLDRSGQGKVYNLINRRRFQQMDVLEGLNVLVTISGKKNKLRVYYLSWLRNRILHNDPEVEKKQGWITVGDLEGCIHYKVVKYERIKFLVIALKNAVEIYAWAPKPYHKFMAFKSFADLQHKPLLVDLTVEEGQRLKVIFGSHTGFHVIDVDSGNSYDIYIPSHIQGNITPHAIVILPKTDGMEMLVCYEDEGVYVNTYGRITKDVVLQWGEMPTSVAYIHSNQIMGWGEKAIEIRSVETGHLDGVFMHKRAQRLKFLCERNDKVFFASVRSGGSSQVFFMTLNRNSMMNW
T6 sequence (O75116 whole entry): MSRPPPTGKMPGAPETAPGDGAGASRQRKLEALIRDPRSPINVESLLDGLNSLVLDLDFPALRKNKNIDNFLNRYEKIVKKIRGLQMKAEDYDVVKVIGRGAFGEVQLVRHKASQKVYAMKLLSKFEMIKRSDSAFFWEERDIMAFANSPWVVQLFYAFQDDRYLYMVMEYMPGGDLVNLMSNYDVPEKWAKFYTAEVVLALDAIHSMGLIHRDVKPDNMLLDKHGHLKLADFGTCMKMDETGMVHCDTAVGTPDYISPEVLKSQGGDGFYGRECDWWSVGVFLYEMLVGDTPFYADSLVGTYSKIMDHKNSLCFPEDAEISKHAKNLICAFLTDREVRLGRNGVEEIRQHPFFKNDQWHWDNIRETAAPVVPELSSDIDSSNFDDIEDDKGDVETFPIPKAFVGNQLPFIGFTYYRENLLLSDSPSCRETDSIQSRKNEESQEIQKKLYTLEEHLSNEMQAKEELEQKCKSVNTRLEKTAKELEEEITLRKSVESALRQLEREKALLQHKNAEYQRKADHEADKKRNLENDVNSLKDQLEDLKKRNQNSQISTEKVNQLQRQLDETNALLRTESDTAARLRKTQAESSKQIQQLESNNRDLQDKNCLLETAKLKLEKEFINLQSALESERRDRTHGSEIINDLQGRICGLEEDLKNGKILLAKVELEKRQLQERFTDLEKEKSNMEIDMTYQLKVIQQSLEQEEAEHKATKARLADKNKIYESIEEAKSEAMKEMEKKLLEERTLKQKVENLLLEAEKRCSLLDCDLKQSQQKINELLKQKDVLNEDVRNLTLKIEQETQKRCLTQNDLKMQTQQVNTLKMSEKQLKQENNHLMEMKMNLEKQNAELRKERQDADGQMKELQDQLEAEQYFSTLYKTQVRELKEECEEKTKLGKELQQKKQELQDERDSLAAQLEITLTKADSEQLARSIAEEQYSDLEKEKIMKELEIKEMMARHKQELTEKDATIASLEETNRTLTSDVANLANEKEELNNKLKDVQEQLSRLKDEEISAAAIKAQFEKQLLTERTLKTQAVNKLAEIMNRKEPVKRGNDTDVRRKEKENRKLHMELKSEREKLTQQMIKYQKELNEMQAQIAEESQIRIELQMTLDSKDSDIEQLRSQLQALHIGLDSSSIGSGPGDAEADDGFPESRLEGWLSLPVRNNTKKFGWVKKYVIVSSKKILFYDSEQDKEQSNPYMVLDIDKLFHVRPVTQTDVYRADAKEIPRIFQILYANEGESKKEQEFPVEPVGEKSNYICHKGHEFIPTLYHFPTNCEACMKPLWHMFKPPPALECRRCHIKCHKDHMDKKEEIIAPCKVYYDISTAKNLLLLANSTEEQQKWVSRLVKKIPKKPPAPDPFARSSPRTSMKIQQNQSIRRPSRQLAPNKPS

CC(C)n1c(=O)ccc2cnc(Nc3ccc(OCCN)cc3)nc21 [V16742]
Percent bound at various 16742 conc (MAP3K6; Experiment 1, 8.74 μM 16742): 3.57%
Percent bound at various 16742 conc (MAP3K6; Experiment 1, 52 μM 16742): 51.68%
Kd (MAP3K6; Experiment 1, read-out: Kd): 57.7 µM
Percent bound at various 16742 conc (MAP3K6; Experiment 2, 1.87 μM 16742): 2.67%
Percent bound at various 16742 conc (MAP3K6; Experiment 2, 8.74 μM 16742): 3.94%
Percent bound at various 16742 conc (MAP3K6; Experiment 2, 52 μM 16742): 13.37%
Kd (MAP3K6; Experiment 2, read-out: Kd): 326 µM
Kd (MAP3K6; average of two experiments, read-out: Kd Avg): 192 µM
Percent bound at various 16742 conc (PHKg2; Experiment 1, 52 μM 16742): 59.42%
Kd (PHKg2; Experiment 2): 146 µM
Percent bound at various 16742 conc (PHKg2; Experiment 2, 1.87 μM 16742): 1.94%
Percent bound at various 16742 conc (PHKg2; Experiment 2, 8.74 μM 16742): 2.29%
Percent bound at various 16742 conc (PHKg2; Experiment 2, 52 μM 16742): 27.11%
r (5 h/2.5 h INC. TIME) (DPH5 (IPI00375824); 5 h vs 2.5 h incubation time): 2.72
rAVERAGE (CTRL/1 INC) (DPH5 (IPI00375824); [2]): 0.03
Ki (DPH5 (IPI00375824); immobilized VI16742): 211 µM
rAVERAGE (2 INC/1 INC) (DPH5 (IPI00375824); second vs first incubation): 0.80
r (3 MG/1 MG LYSATE) (RPSA (IPI00413108); 3 mg vs 1 mg lysate): 3.92
r (5 h/2.5 h INC. TIME) (RPSA (IPI00413108); 5 h vs 2.5 h incubation time): 2.26
rAVERAGE (CTRL/1 INC) (RPSA (IPI00413108); [2]): 0.11
Ki (RPSA (IPI00413108); immobilized VI16742): 185 µM
rAVERAGE (2 INC/1 INC) (RPSA (IPI00413108); second vs first incubation): 0.78
r (5 h/2.5 h INC. TIME) ([1]; 5 h vs 2.5 h incubation time): 1.27
rAVERAGE (CTRL/1 INC) [1, 2]: 0.19
Ki ([1]; immobilized VI16742): 108 µM
rAVERAGE (2 INC/1 INC) ([1]; second vs first incubation): 0.67
r (3 MG/1 MG LYSATE) (ROCK2 (IPI00307155); 3 mg vs 1 mg lysate): 3.18
r (5 h/2.5 h INC. TIME) (ROCK2 (IPI00307155); 5 h vs 2.5 h incubation time): 1.74
rAVERAGE (CTRL/1 INC) (ROCK2 (IPI00307155); [2]): 0.08
Ki (ROCK2 (IPI00307155); immobilized VI16742): 255 µM
rAVERAGE (2 INC/1 INC) (ROCK2 (IPI00307155); second vs first incubation): 0.83
